Reference: PMC13198257, “An aerosolized dual-action autotaxin inhibitor-PPARγ agonist for the treatment of pulmonary fibrosis” (Cell Reports Medicine, 2026)

Test system: lung gene expression
Experiment: RNA sequencing of lung tissue (BLM/EL244 vs BLM)
Type: in vivo, mouse
Description: RNA quality was assessed using an Agilent TapeStation 4150 with the High Sensitivity […] ScreenTape (Agilent), according to the manufacturer’s protocols. For library preparation, the QuantSeq 3’mRNA-Seq Library Prep Kit (Lexogen) was used according to manufacturer’s instructions. Briefly, 500 ng of RNA from each sample was used for first-strand synthesis, followed by RNA template removal, and second-strand synthesis initiated by random primers. In-line barcodes were introduced at this step, and this was followed by magnetic bead-based purification. The resulting libraries were amplified for 15 cycles and re-purified, with quantity and quality assessed on a Qubit 4 Fluorometer with the Invitrogen Qubit dsDNA HS Assay and an Agilent Tapestation 4150 with the High Sensitivity D1000 assay kit, respectively. The quantified libraries were pooled equimolarly; 50ng of total library mix was used for Adapter Conversion PCR Amplification using the Universal Library Conversion Kit (App-A), Version: V1.0 (MGI Tech Co., Ltd.), according to the manufacturer’s instructions.
The quantity and quality of the purified adapter conversion PCR (AC-PCR) product were evaluated on a Qubit 4 Fluorometer with the Invitrogen Qubit dsDNA HS Assay and on an Agilent Tapestation 4150 with the High Sensitivity D1000 assay kit, respectively. This was followed by DNA denaturation, Single-Strand Circularisation, Enzymatic Digestion, Enzymatic Digestion Product Cleanup and Quality Control steps on 1 pmol of AC-PCR product, according to the Universal Library Conversion Kit (App-A) User Manual (Version: A3).
Finally, 60 fmol of ssCirDNA were used for DNB preparation and sequencing on a DNBSEQ-G400 platform at the BSRC Alexander Fleming Genomics Facility, using a G400 App-A FCS SE100 High-throughput Sequencing Set (MGI Tech Co., Ltd.), according to the manufacturer’s instructions.
Alignment of the FASTQ files was performed against the mouse genome build mm10 using a custom Bash script.[143] Read counting on the 3′ UTRs and differential expression analysis were conducted using the metaseqR2 bioconductor package.[144] Genes corresponding to the following biotypes were excluded: polymorphic_pseudogene, processed_transcript, pseudogene, IG_V_pseudogene, misc_RNA, IG_C_gene, IG_J_gene, IG_D_gene, IG_LV_gene, TR_V_gene, TR_V_pseudogene, TEC, and processed_pseudogene. Gene counts were normalized with DESEQ[145] through metaseqR2. Genes with more than 10 counts in at least 50% of the samples were kept for further processing. For differential expression analysis, the PANDORA algorithm[146] was used to estimate a meta p-value integrating the results from the DESEQ, DESEQ2,[147] edgeR,[148] limma,[149] NBPSeq,[150] and NOISeq[151] algorithms. All additional parameters were set to default values.
Pathway enrichment analysis was performed for the Gene Ontology Biological process (BP) and Molecular Function (MF) terms through GeneCodis 4.[152] The volcano plots, scatterplots, Venn diagrams, and dot plots were generated using the ggplot2 Bioconductor package.

[1] = lung tissue of BLM-treated mice, BLM/EL244 vs BLM

O=C1NC(=O)C(Cc2ccc(OCCC3CCN(C(=O)OCc4cc(Cl)cc(Cl)c4)CC3)cc2)S1 (stereo not shown) [EL244, 3,5-dichlorobenzyl 4-(2-(4-((2,4-dioxothiazolidin-5-yl)methyl)phenoxy)ethyl)piperidine-1-carboxylate]
Rora log2 nFC BLM/EL244 vs BLM (DEG Rora, nFC: normalised fold change): 0.80
log2 nFC BLM/EL244 vs BLM (DEG Rrm2): -2.56
Ryr2 log2 nFC BLM/EL244 vs BLM (DEG Ryr2, nFC: normalised fold change): 2.14
S1pr4 log2 nFC BLM/EL244 vs BLM (DEG S1pr4, nFC: normalised fold change): 0.94
S1pr5 log2 nFC BLM/EL244 vs BLM (DEG S1pr5, nFC: normalised fold change): 1.64
log2 nFC BLM/EL244 vs BLM (DEG S100a4): -1.26
S100a8 log2 nFC BLM/EL244 vs BLM (DEG S100a8, nFC: normalised fold change): 1.52
S100a9 log2 nFC BLM/EL244 vs BLM (DEG S100a9, nFC: normalised fold change): 2.11
log2 nFC BLM/EL244 vs BLM (DEG S100a14): -1.28
Scn3a log2 nFC BLM/EL244 vs BLM (DEG Scn3a, nFC: normalised fold change): 0.75
Scube2 log2 nFC BLM/EL244 vs BLM (DEG Scube2, nFC: normalised fold change): 0.74
Sec14l3 log2 nFC BLM/EL244 vs BLM (DEG Sec14l3, nFC: normalised fold change): 0.69
Sec14l4 log2 nFC BLM/EL244 vs BLM (DEG Sec14l4, nFC: normalised fold change): 0.77
Sell log2 nFC BLM/EL244 vs BLM (DEG Sell, nFC: normalised fold change): 1.03
Sema3g log2 nFC BLM/EL244 vs BLM (DEG Sema3g, nFC: normalised fold change): 0.78
log2 nFC BLM/EL244 vs BLM (DEG Serpina3g): -1.31
Sftpa1 log2 nFC BLM/EL244 vs BLM (DEG Sftpa1, nFC: normalised fold change): 0.70
Sgip1 log2 nFC BLM/EL244 vs BLM (DEG Sgip1, nFC: normalised fold change): 0.90
Sgms1 log2 nFC BLM/EL244 vs BLM (DEG Sgms1, nFC: normalised fold change): 0.71
log2 nFC BLM/EL244 vs BLM (DEG Ska1): -2.52
log2 nFC BLM/EL244 vs BLM (DEG Slamf8): -1.24
Slc2a4rg-ps log2 nFC BLM/EL244 vs BLM (DEG Slc2a4rg-ps, nFC: normalised fold change): 0.85
Slc7a10 log2 nFC BLM/EL244 vs BLM (DEG Slc7a10, nFC: normalised fold change): 0.97
log2 nFC BLM/EL244 vs BLM (DEG Slc7a11): -1.50
Slc16a11 log2 nFC BLM/EL244 vs BLM (DEG Slc16a11, nFC: normalised fold change): 0.79
Slc38a4 log2 nFC BLM/EL244 vs BLM (DEG Slc38a4, nFC: normalised fold change): 1.12
Slc43a3 log2 nFC BLM/EL244 vs BLM (DEG Slc43a3, nFC: normalised fold change): 0.73
Sln log2 nFC BLM/EL244 vs BLM (DEG Sln, nFC: normalised fold change): 2.01
Smad6 log2 nFC BLM/EL244 vs BLM (DEG Smad6, nFC: normalised fold change): 1.18
Smpx log2 nFC BLM/EL244 vs BLM (DEG Smpx, nFC: normalised fold change): 2.34
Smyd1 log2 nFC BLM/EL244 vs BLM (DEG Smyd1, nFC: normalised fold change): 1.73
Snhg11 log2 nFC BLM/EL244 vs BLM (DEG Snhg11, nFC: normalised fold change): 1.40
Sntb1 log2 nFC BLM/EL244 vs BLM (DEG Sntb1, nFC: normalised fold change): 0.72
Snx21 log2 nFC BLM/EL244 vs BLM (DEG Snx21, nFC: normalised fold change): 1.15
Sorbs1 log2 nFC BLM/EL244 vs BLM (DEG Sorbs1, nFC: normalised fold change): 0.70
Sorbs3 log2 nFC BLM/EL244 vs BLM (DEG Sorbs3, nFC: normalised fold change): 0.80
log2 nFC BLM/EL244 vs BLM (DEG Sox9): -1.42
log2 nFC BLM/EL244 vs BLM (DEG Spp1): -1.50
Srcin1 log2 nFC BLM/EL244 vs BLM (DEG Srcin1, nFC: normalised fold change): 0.91
Syne1 log2 nFC BLM/EL244 vs BLM (DEG Syne1, nFC: normalised fold change): 0.70
Synm log2 nFC BLM/EL244 vs BLM (DEG Synm, nFC: normalised fold change): 0.84
log2 nFC BLM/EL244 vs BLM (DEG Tacc3): -1.27
Tbata log2 nFC BLM/EL244 vs BLM (DEG Tbata, nFC: normalised fold change): 1.72
Tbkbp1 log2 nFC BLM/EL244 vs BLM (DEG Tbkbp1, nFC: normalised fold change): 0.71
Tcap log2 nFC BLM/EL244 vs BLM (DEG Tcap, nFC: normalised fold change): 1.73
log2 nFC BLM/EL244 vs BLM (DEG Tcf19): -1.42
Tex11 log2 nFC BLM/EL244 vs BLM (DEG Tex11, nFC: normalised fold change): 1.83
Tgfbr3 log2 nFC BLM/EL244 vs BLM (DEG Tgfbr3, nFC: normalised fold change): 0.83
Tmem100 log2 nFC BLM/EL244 vs BLM (DEG Tmem100, nFC: normalised fold change): 0.82
Tmem182 log2 nFC BLM/EL244 vs BLM (DEG Tmem182, nFC: normalised fold change): 2.26
Tmem132d log2 nFC BLM/EL244 vs BLM (DEG Tmem132d, nFC: normalised fold change): 2.38
log2 nFC BLM/EL244 vs BLM (DEG Tnip3): -1.47
Tnnc1 log2 nFC BLM/EL244 vs BLM (DEG Tnnc1, nFC: normalised fold change): 2.18
Tnni3 log2 nFC BLM/EL244 vs BLM (DEG Tnni3, nFC: normalised fold change): 2.31
Tnnt2 log2 nFC BLM/EL244 vs BLM (DEG Tnnt2, nFC: normalised fold change): 1.77
Tns2 log2 nFC BLM/EL244 vs BLM (DEG Tns2, nFC: normalised fold change): 0.77
Tppp3 log2 nFC BLM/EL244 vs BLM (DEG Tppp3, nFC: normalised fold change): 0.77
log2 nFC BLM/EL244 vs BLM (DEG Trem2): -1.42
log2 nFC BLM/EL244 vs BLM (DEG Trip13): -1.42
Ttn log2 nFC BLM/EL244 vs BLM (DEG Ttn, nFC: normalised fold change): 2.53
Unc45b log2 nFC BLM/EL244 vs BLM (DEG Unc45b, nFC: normalised fold change): 0.77
Upk3b log2 nFC BLM/EL244 vs BLM (DEG Upk3b, nFC: normalised fold change): 1.53
Vpreb3 log2 nFC BLM/EL244 vs BLM (DEG Vpreb3, nFC: normalised fold change): 0.71
Vwa3b log2 nFC BLM/EL244 vs BLM (DEG Vwa3b, nFC: normalised fold change): 0.98
log2 nFC BLM/EL244 vs BLM (DEG Wfdc17): -1.30
Xndc1 log2 nFC BLM/EL244 vs BLM (DEG Xndc1, nFC: normalised fold change): 1.14
Zmynd10 log2 nFC BLM/EL244 vs BLM (DEG Zmynd10, nFC: normalised fold change): 1.28
log2 nFC BLM/EL244 vs BLM (DEG Zranb3): -1.43
log2 nFC BLM/EL244 vs BLM (DEG Zwilch): -1.54
1810010H24Rik log2 nFC [1]: 0.90
1810010H24Rik nFC [1]: 1.87
Abca8a log2 nFC [1]: 0.75
Abca8a nFC [1]: 1.68
Abi3bp log2 nFC [1]: 1.00
Abi3bp nFC [1]: 2.00
Acbd4 log2 nFC [1]: 0.86
Acbd4 nFC [1]: 1.81
Adgrf5 log2 nFC [1]: 0.68
Adgrf5 nFC [1]: 1.60
Adh7 log2 nFC [1]: 1.02
Adh7 nFC [1]: 2.02
Aldh1a1 log2 nFC [1]: 0.78
Aldh1a1 nFC [1]: 1.71
Ankrd44 log2 nFC [1]: 0.84
Ankrd44 nFC [1]: 1.79
Aox3 log2 nFC [1]: 1.07
Aox3 nFC [1]: 2.09
Ar log2 nFC [1]: 1.04
Ar nFC [1]: 2.06
Arhgef28 log2 nFC [1]: 0.76
Arhgef28 nFC [1]: 1.70
Arhgef38 log2 nFC [1]: 0.87
Arhgef38 nFC [1]: 1.83
Arl4a log2 nFC [1]: 0.70
Arl4a nFC [1]: 1.63
Atp2a3 log2 nFC [1]: 0.83
Atp2a3 nFC [1]: 1.77
Atp6v1c2 log2 nFC [1]: 1.03
Atp6v1c2 nFC [1]: 2.04
Atp7b log2 nFC [1]: 0.95
Atp7b nFC [1]: 1.93
Bcar3 log2 nFC [1]: 0.82
Bcar3 nFC [1]: 1.76
Bmp6 log2 nFC [1]: 1.07
Bmp6 nFC [1]: 2.10
Cbr2 log2 nFC [1]: 0.91
Cbr2 nFC [1]: 1.88
Ccdc153 log2 nFC [1]: 0.79
Ccdc153 nFC [1]: 1.73
Ccdc171 log2 nFC [1]: 1.04
Ccdc171 nFC [1]: 2.06
Ccl5 log2 nFC [1]: 0.76
Ccl5 nFC [1]: 1.69
Cep85l log2 nFC [1]: 1.02
Cep85l nFC [1]: 2.03
